This series in a line: Human HepG2 cell viability assay in 384 well format. Further details: dose 125 nL, time 70.5 hour; concentration not given beside the values. The format is toxicity, cell-based. Particulars: HepG2 cells, read-out: Inhibition.

For the compound `COc1ccc(C(=O)N2CCC(Nc3cccnn3)CC2)cn1`, the cytotoxicity at 70.5 h is 13.7%.
For `CCc1n[nH]c(C2CN(C(=O)c3ccc(NC4CC4)nc3)CCO2)n1` (configuration not stated), the cytotoxicity at 70.5 h is -7.92%.
On to `Cc1cnn(CC2CCCN2C(=O)c2cc(O)nc3ccccc23)c1` (configuration not stated), for which the cytotoxicity at 70.5 h was -7.86%.
With `Cc1nc(CN2CCCN(C(=O)c3sccc3C#N)CC2)cs1`, the cytotoxicity at 70.5 h stood at 0.736%.
With `O=C(c1sccc1C1CC1)N1CCN(Cc2cscn2)CC1`, the cytotoxicity at 70.5 h came out at 5.77%.
As to `CC(Cn1cccn1)NC(=O)NCc1ccoc1` (configuration not stated), the cytotoxicity at 70.5 h is -10.1%.
With `CC(C)NC(=O)NCc1ccc(C(=O)NC(C)Cn2cccn2)cc1` (configuration not stated), the cytotoxicity at 70.5 h was -13.2%.
Turning to `Cc1ccc(CNC(=O)NC(C)Cn2cccn2)cn1` (configuration not stated), the cytotoxicity at 70.5 h was -9.6%.
`Cc1ccoc1C(=O)NC1CCN(C(=O)Nc2ccccn2)CC1`: the cytotoxicity at 70.5 h is -5.66%.
As for `COc1ccccc1C(=O)N(C)Cc1nnc2ccccn12`, the cytotoxicity at 70.5 h was -14%.
Regarding `COc1ccc(OC)c(C(=O)N(C)Cc2nnc3ccccn23)c1`, the cytotoxicity at 70.5 h is -15.1%.
For `Cn1ccnc1CN1CCN(CC(O)c2cc(F)ccc2F)CC1` (configuration not stated), the cytotoxicity at 70.5 h is -10.1%.
Regarding `CC(c1cccc(F)c1)N1CCN(Cc2nccn2C)CC1` (configuration not stated), the cytotoxicity at 70.5 h is -9.9%.
For `CC(C)c1nc2c(n1C)CCN(CC(=O)Nc1ccnn1C(C)C)C2`, the cytotoxicity at 70.5 h was 0.248%.
With `COc1ccc(OCCC(=O)N2CCCC2Cn2cccn2)cc1` (configuration not stated), the cytotoxicity at 70.5 h stood at 0.4%.
To `O=C(c1ccc(O)nc1)N1CCC(Nc2cccnn2)CC1` belongs -8.37%; to `Cc1cnn(CC2CN(Cc3nc4cccnc4[nH]3)CCO2)c1` (configuration not stated), 7.51%.
On to `CN(Cc1cnn(C)c1)CC1CCCN1c1cccnn1` (configuration not stated), for which the cytotoxicity at 70.5 h was -4.73%.
With `CN1CCN(C2CCN(Cc3nnc(C(C)(C)C)o3)CC2)C1=O`, the cytotoxicity at 70.5 h was -1.9%.
To `CC(=O)Nc1nc(CN2CCOC(Cn3cncn3)C2)cs1` (configuration not stated) belongs -5.38%; to `COCc1nc(C(=O)N2CCCC2Cn2cc(C)cn2)cs1` (configuration not stated), -6.43%; to `O=C(NCCCNc1ccc(C(F)(F)F)cn1)c1ccc(F)cc1F`, -4.42%.
As to `O=C(NCCNc1ccc(C(F)(F)F)cn1)c1cc(Cl)ccc1F`, the cytotoxicity at 70.5 h was -4.63%.
To `COCCN1CC(C(=O)NCc2cccnc2-n2cccn2)CC1=O` (configuration not stated) belongs -7.22%; to `CC(C)CN1CC(C(=O)NCc2cccnc2-n2cccn2)CC1=O` (configuration not stated), -8.02%; to `O=C(CCn1cncn1)NCC(c1ccco1)N1CCCCC1` (configuration not stated), 7%.
Take `O=C(c1cc(F)ccc1F)C1CCN(C(=O)c2cnccn2)CC1`: the cytotoxicity at 70.5 h was -4.44%.
In the case of `CC(C)N(Cc1cccc(Cl)c1)Cc1nc2c(cnn2C)c(=O)[nH]1`, the cytotoxicity at 70.5 h is 6.79%.
With `CCN(Cc1ccc(F)c(F)c1)Cc1nc2c(cnn2C)c(=O)[nH]1` the figure was -4.48%; with `Cc1cnc(C(=O)N2CCC(C(=O)c3cc(F)ccc3F)CC2)cn1`, -5.07%.
As to `Cc1cccc(C(=O)N2CCC(C(=O)c3cc(F)ccc3F)CC2)n1`, the cytotoxicity at 70.5 h is -7.52%.
Consider `O=C(NCCc1ccn(-c2ccccc2)n1)N1CCCC(O)C1` (configuration not stated), for which the cytotoxicity at 70.5 h stood at 1.8%.
In the case of `Cc1cnn(CC2CCCCN2C(=O)c2ccc3[nH]cnc3c2)c1` (configuration not stated), the cytotoxicity at 70.5 h came out at 8.11%.
To `O=C(CNCCn1cccn1)NCC1(c2ccccc2)CCC1` belongs 1.86%; to `O=C(CCCc1cccs1)N1CCC(N2CCNC2=O)CC1`, 22.1%; to `CCc1csc(C2CCCN(C(=O)c3ccc4[nH]nnc4c3)C2)n1` (configuration not stated), -0.976%.
Consider `O=C(CCc1cccs1)N1CCCC(N2CCNC2=O)C1` (configuration not stated), for which the cytotoxicity at 70.5 h is -5.71%.
Turning to `CCc1nc(C2CCCN(C(=O)c3ccc(OC)cc3)C2)no1` (configuration not stated), the cytotoxicity at 70.5 h was 0.812%.
With `CCn1c(C)nnc1CN(C)C1CCN(CCCSC)C1` (configuration not stated) the figure was 26.5%.
`CC(=O)N(Cc1ncc(C)o1)C1CCN(Cc2sc(C)nc2C)C1` (configuration not stated): the cytotoxicity at 70.5 h was -3.28%.
Take `CCCc1n[nH]c(C2CN(C(=O)c3ccnc(C4CC4)n3)CCO2)n1` (configuration not stated): the cytotoxicity at 70.5 h is -1.45%.
For `CCCc1nc(CNCC2CCCN2c2cccnn2)no1` (configuration not stated), the cytotoxicity at 70.5 h worked out at 22.6%.
As to `CCc1noc(CNCC2CCCN2c2cccnn2)n1` (configuration not stated), the cytotoxicity at 70.5 h stood at 1.91%.
In the case of `CCc1nc(C2CCCN(C(=O)CC3CCOCC3)C2)no1` (configuration not stated), the cytotoxicity at 70.5 h is -8.83%.
As for `CS(=O)(=O)NC1CCCN(C(=O)NCc2ccoc2)C1` (configuration not stated), the cytotoxicity at 70.5 h worked out at 0.0228%.
On to `CS(=O)(=O)NC1CCCN(C(=O)NCc2cccc(F)c2)C1` (configuration not stated), for which the cytotoxicity at 70.5 h is -4.51%.
Regarding `Cc1ccc(C(CNC(=O)Nc2cn[nH]c2)N2CCOCC2)o1` (configuration not stated), the cytotoxicity at 70.5 h was -1.26%.
Consider `CS(=O)(=O)NC1CCN(C(=O)NCc2cccnc2)CC1`, for which the cytotoxicity at 70.5 h came to 2.6%.
To `COc1ccnc(N2CCN(C(=O)Cc3ccsc3)CC2)n1` belongs -8.71%; to `Cc1nnc(C2Cc3ccccc3CN2Cc2c(C)noc2C)o1` (configuration not stated), -1.11%; to `CN(CC(=O)N1CCCN(Cc2cscn2)CC1)c1cnccn1`, -5.45%.
With `COCCc1noc(CN2CCCCC2Cn2nc(C)cc2C)n1` (configuration not stated) the figure was -1.86%.
To `Cc1cnn(CC2CCCN2CC(=O)Nc2cc(C)nn2C)c1` (configuration not stated) belongs 9.7%; to `Cc1ccc(N2CCCC(NCc3ccncc3)C2)nn1` (configuration not stated), 11.6%; to `O=C(COCC1CC1)N1CCCC(n2ccnc2)C1` (configuration not stated), 5.1%.
For the compound `CCc1nccn1C1CCCN(C(=O)Cc2cn3ccccc3n2)C1` (configuration not stated), the cytotoxicity at 70.5 h was -3.88%.
Consider `Cc1ncc(CNCC2CCCN2c2cccnn2)s1` (configuration not stated), for which the cytotoxicity at 70.5 h is -19.7%.
Regarding `CC(=O)N(Cc1noc(C)n1)C1CCN(Cc2ccncc2Cl)C1` (configuration not stated), the cytotoxicity at 70.5 h was -4.45%.
With `CC(NC(=O)NCc1ccc(Cl)cc1)c1ccccn1` (configuration not stated), the cytotoxicity at 70.5 h is -10.7%.
With `CNS(=O)(=O)c1cccc(CNC(=O)c2c(C)nn(C)c2C)c1` the figure was -3.24%.
With `CC(NC(=O)NCc1ccc(Cl)s1)c1ccccn1` (configuration not stated) the figure was -20%.
Regarding `CC(C)(C)C(=O)NCCc1ccn(-c2ccccc2)n1`, the cytotoxicity at 70.5 h was -17.1%.
As to `CC(C)c1nc(CCNC(=O)NCc2ccnc(N(C)C)c2)cs1`, the cytotoxicity at 70.5 h is -10.2%.
For the compound `Cn1ccc(CN2CCC(COC3CCCC3)CC2)cc1=O`, the cytotoxicity at 70.5 h is -11%.
In the case of `O=C(CCN1CCOC(Cn2cccn2)C1)NC1CCCC1` (configuration not stated), the cytotoxicity at 70.5 h was found to be 17.5%.
As to `Cc1cnn(CC2CCCN2C(=O)c2cnc3n[nH]c(C)c3c2)c1` (configuration not stated), the cytotoxicity at 70.5 h came out at 15.1%.
Take `Cc1nc(C2CCCN(C(=O)c3cnn(C(C)(C)C)c3)C2)no1` (configuration not stated): the cytotoxicity at 70.5 h was determined as 23.3%.
On to `Cc1ccc(CC(=O)N2CCCCC2c2nc(C)cs2)cn1` (configuration not stated), for which the cytotoxicity at 70.5 h is -14.4%.
For the compound `Cc1nc(C2CCCN(C(=O)c3ccc(N4CCCC4)nc3)C2)no1` (configuration not stated), the cytotoxicity at 70.5 h turned out to be 1.03%.
On to `Cc1cn2nc(N3CCCC3CC(C)(C)C)sc2n1` (configuration not stated), for which the cytotoxicity at 70.5 h is -4.57%.
Consider `CCn1cc(C(=O)NCc2csc(Br)c2)cn1`, for which the cytotoxicity at 70.5 h is -11.6%.
Consider `CC(c1nc(C2CC2)no1)N1CCN(Cc2ccccc2F)CC1` (configuration not stated), for which the cytotoxicity at 70.5 h was -6.67%.
On to `Cc1ccc(N2CCCC(NCc3nc(C)c(C)o3)C2)nn1` (configuration not stated), for which the cytotoxicity at 70.5 h was -14.3%.
In the case of `Cc1cnn(C2CCCN(C(=O)CCCOc3cccc(F)c3)C2)c1` (configuration not stated), the cytotoxicity at 70.5 h amounted to 0.97%.
As to `Cc1cc(C(=O)N2CCCC(n3cncn3)C2)c(C)n1C1CC1` (configuration not stated), the cytotoxicity at 70.5 h was -1.59%.
As to `Cc1cnn(CC2CCCN2Cc2nccn2C)c1` (configuration not stated), the cytotoxicity at 70.5 h was determined as 13.6%.
As to `COc1c(CNCc2ccc(CN(C)C)cc2)c(C)nn1C`, the cytotoxicity at 70.5 h was -4.98%.
For `COc1ccc(CN(C)CC2CCCN2c2cccnn2)cc1F` (configuration not stated), the cytotoxicity at 70.5 h was 44.2%.
In the case of `CN(Cc1cccnc1)CC1CCCN1c1cccnn1` (configuration not stated), the cytotoxicity at 70.5 h stood at 13.1%.
As to `CC(=O)N(C)c1nc(CN2CCOC(Cn3cc(C)cn3)C2)cs1` (configuration not stated), the cytotoxicity at 70.5 h turned out to be 13.6%.
In the case of `CCN1CCN(C2CCN(Cc3nc4ccccc4o3)CC2)C1=O`, the cytotoxicity at 70.5 h is -8.04%.
In the case of `Cn1ccnc1CN1CCN(CC(O)c2ccco2)CC1` (configuration not stated), the cytotoxicity at 70.5 h is -25.9%.
In the case of `O=C(c1cc(F)ccc1F)C1CCN(C(=O)c2ccccn2)CC1`, the cytotoxicity at 70.5 h was -12.2%.
To `Cc1nc(CN2CCN(C(=O)c3cc(C4CC4)on3)CC2)cs1` belongs -14.7%; to `Cc1cc(S(=O)(=O)NCc2cccc(C(=O)N3CCCC3)c2)c(C)s1`, -0.781%; to `O=C(CCc1ccccc1)N1CCC(N2CCNC2=O)CC1`, -8.47%.
In the case of `Cc1cnn(CC2CCCN2C(=O)c2nccc3ccccc23)c1` (configuration not stated), the cytotoxicity at 70.5 h was -15.9%.
`O=C(NCC(O)CN1CCc2ccccc2C1)Nc1cccnc1` (configuration not stated): the cytotoxicity at 70.5 h is -17.4%.
Turning to `O=C(c1cccc(CNS(=O)(=O)c2ccccc2F)c1)N1CCCC1`, the cytotoxicity at 70.5 h is -16.2%.
Regarding `Cc1cnn(CC2CCCCN2C(=O)c2ccnc(N(C)C)c2)c1` (configuration not stated), the cytotoxicity at 70.5 h is -17.7%.
With `CC(C)c1nc(C2CCCN(C(=O)c3ccc4[nH]cnc4c3)C2)no1` (configuration not stated), the cytotoxicity at 70.5 h is -18.2%.
To `CCc1nc(C2CCCN(C(=O)c3ccc(OC(C)C)nc3)C2)no1` (configuration not stated) belongs 17.6%.
On to `CC(C)c1nc(C2CCCN(C(=O)c3ccc4nccn4c3)C2)no1` (configuration not stated), for which the cytotoxicity at 70.5 h was -3.59%.
To `CCn1cc(NC(=O)NCC(O)CN2CCCCC2)cn1` (configuration not stated) belongs -14.9%; to `CCc1nc(C2CCCN(C(=O)c3ccc4[nH]nnc4c3)C2)no1` (configuration not stated), -11%.
Take `O=C(c1ccc(-n2cccn2)nc1)N1CCCN(c2cccnn2)CC1`: the cytotoxicity at 70.5 h is -14.8%.
On to `O=C(c1ccn(-c2cccc(F)c2)n1)N1CCCC(n2cccn2)C1` (configuration not stated), for which the cytotoxicity at 70.5 h is -15.2%.
Consider `COCc1nc(C(=O)N2CCCCC2Cn2cc(C)cn2)cs1` (configuration not stated), for which the cytotoxicity at 70.5 h was found to be 16.8%.
As for `Cc1nc(CN2CCN(C(=O)c3sccc3C3CC3)CC2)cs1`, the cytotoxicity at 70.5 h is -13%.
With `CCn1c(C)nnc1CN(C)C1CCN(CCn2cccn2)C1` (configuration not stated), the cytotoxicity at 70.5 h worked out at 7.42%.
Regarding `COc1c(CNCc2ccc(C(=O)N(C)C)cc2)c(C)nn1C`, the cytotoxicity at 70.5 h came out at 0.637%.
With `CCc1ccc(OCC(O)CN2CCN(CCO)CC2)cc1` (configuration not stated), the cytotoxicity at 70.5 h was -3.3%.
